Reference: patent US20240150841A1, “TAP63 REGULATED ONCOGENIC LONG NON-CODING RNAS” (H. LEE MOFFITT CANCER CENTER AND RESEARCH INSTITUTE, INC., priority 2021, published 2024)
Structures can show the parent of a compound that is named as a salt.

Assays:
TROLL-2 = assay: qRT-PCR for TROLL-2 in triple negative breast cancer cells treated with drugs; type: cell-based, human; conditions: for expression of TROLL-2 following treatment: CA1D, BT-20, BT-549, MDA-MB-231, for at least 48 hours following treatment; for expression of TROLL-2 by the end of the 72 hour course: TNBC cell lines
Method: (§1) Total RNA was prepared using TRIzol reagent (Invitrogen)5. For gene expression analysis, complementary DNA was synthesized from 5 μg of total RNA using the SuperScript II First-Strand Synthesis Kit (Invitrogen) according to the manufacturer's protocol followed by qRT-PCR using the TaqMan® Universal PCR Master Mix (Applied Biosystems). qRT-PCR was performed using a QuantStudio 6 flex PCR machine (Applied Biosystems) and each qRT-PCR was performed in triplicate.
(§2) We wanted to examiner the effects anti-cancer treatments on the level of TROLLs overtime.

TROLL-3 = assay: qRT-PCR for TROLL-3 in triple negative breast cancer cells treated with drugs; type: cell-based, human; conditions: for expression of TROLL-3 following treatment: CA1D, BT-20, BT-549, MDA-MB-231, for at least 48 hours following treatment; for expression of TROLL-3 by the end of the 72 hour course: TNBC cell lines
Method: as §1, §2

CA1D cells = assay: Annexin V assay (apoptosis / cell death) time course in CA1D cells; type: cell-based, human
Method: Cells were plated at a density of 1×10^4 cells in 6 replicates in a 96-well plate. Three biological replicates were performed per each assay. To evaluate cell proliferation, the cells were labelled for 3 h with […] EdU (5′-ethynyl-2′-deoxyuridine) and stained using the Click-iT EdU microplate assay (Invitrogen). Apoptosis was monitored by incubating the cells with Annexin V-Alexa Fluor 488 (Essen BioScience) according to the manufacturer's instructions Images were captured and percent of either cell proliferation or apoptosis was quantified using a high-throughput immunofluorescence plate reader and accompanying software (IncuCyte, Essen Bioscience).
To see how effective the administration of an anti-cancer treatment alone or in combination with siRNA targeting TROLL2 and/or TROLL-3 was, CA1D cells were administered treatment and […] of the cells was measured by Annexin V staining. As shown in FIGS. 14A-14F cells with high levels of TROLLs were either limited in response to treatment or resistant.

WDR26 (endogenous) = WDR26 (endogenous) (UniProt Q9H7D7)
Sequence of UniProt Q9H7D7 (Q9H7D7 whole entry): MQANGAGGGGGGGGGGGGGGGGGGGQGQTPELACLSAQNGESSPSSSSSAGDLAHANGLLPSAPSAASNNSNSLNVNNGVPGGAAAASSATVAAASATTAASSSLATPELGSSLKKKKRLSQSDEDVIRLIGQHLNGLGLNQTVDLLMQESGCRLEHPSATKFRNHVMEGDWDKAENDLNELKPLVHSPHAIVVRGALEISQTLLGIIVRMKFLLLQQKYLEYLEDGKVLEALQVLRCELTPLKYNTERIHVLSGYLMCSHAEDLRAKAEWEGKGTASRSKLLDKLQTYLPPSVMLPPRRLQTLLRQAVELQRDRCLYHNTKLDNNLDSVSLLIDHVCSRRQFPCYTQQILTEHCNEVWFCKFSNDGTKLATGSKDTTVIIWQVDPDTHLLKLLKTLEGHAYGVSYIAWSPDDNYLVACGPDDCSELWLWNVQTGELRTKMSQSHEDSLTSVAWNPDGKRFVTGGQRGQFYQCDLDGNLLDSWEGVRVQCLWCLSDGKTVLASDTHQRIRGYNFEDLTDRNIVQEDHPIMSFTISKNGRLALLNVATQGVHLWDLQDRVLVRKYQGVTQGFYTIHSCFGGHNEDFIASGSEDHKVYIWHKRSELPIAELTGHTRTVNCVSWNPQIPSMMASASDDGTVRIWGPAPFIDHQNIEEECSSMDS

| Molecule | expression of TROLL-2 following treatment (TROLL-2) | expression of TROLL-2 by the end of the 72 hour course (TROLL-2) | expression of TROLL-3 following treatment (TROLL-3) | expression of TROLL-3 by the end of the 72 hour course (TROLL-3) | response to drug in TNBC with high levels of TROLLs (in particular TROLL-2 and TROLL-3) (CA1D cells) | response to drug in TNBC with low levels of TROLLs (in particular TROLL-2 and TROLL-3) (CA1D cells) | AKT phosphorylation levels (pAKT S473, western blot) (WDR26 (endogenous)) |
| --- | --- | --- | --- | --- | --- | --- | --- |
| COc1cccc2c1C(=O)c1c(O)c3c(c(O)c1C2=O)C[C@@](O)(C(=O)CO)C[C@@H]3O[C@H]1C[C@H](N)[C@H](O)[C@H](C)O1 [Adriamycin, Doxorubicin Hydrochloride] | reduced expression | increased expression | reduced expression | increased expression | limited response | sensitivity | – |
| CCCCCOC(=O)Nc1nc(=O)n([C@@H]2O[C@H](C)[C@@H](O)[C@H]2O)cc1F [capecitabine] | reduced expression | increased expression | reduced expression | increased expression | resistance | partial response | – |
| N.N.O=C([O-])C1(C(=O)[O-])CCC1.[Pt+2] [carboplatin] | reduced expression | increased expression | reduced expression | increased expression | resistance | partial response | – |
| O=P1(N(CCCl)CCCl)NCCCO1 (stereo not shown) [cyclophosphamide] | reduced expression | – | reduced expression | – | resistance | partial response | – |
| CC(=O)O[C@@]12CO[C@@H]1C[C@H](O)[C@@]1(C)C(=O)[C@H](O)C3=C(C)[C@@H](OC(=O)[C@H](O)[C@@H](NC(=O)OC(C)(C)C)c4ccccc4)C[C@@](O)([C@@H](OC(=O)c4ccccc4)[C@H]21)C3(C)C [docetaxel] | reduced expression | – | reduced expression | – | limited response | sensitivity | – |
| CC(=O)O[C@H]1C(=O)[C@@]2(C)[C@H]([C@H](OC(=O)c3ccccc3)[C@]3(O)C[C@H](OC(=O)[C@H](O)[C@@H](NC(=O)c4ccccc4)c4ccccc4)C(C)=C1C3(C)C)[C@]1(OC(C)=O)CO[C@@H]1C[C@@H]2O [paclitaxel] | reduced expression | – | reduced expression | – | limited response | sensitivity | – |
| AKT (endogenous) | – | – | – | – | – | – | a decrease in AKT phosphorylation levels |
